A short description of data set [1]: Antiproliferative activity against human Mino cells assessed as inhibition of cell proliferation incubated for 72 hrs by Cell-titer-Glo luminescent cell viability assay. Format: functional, cell-based.
Another data set deals with JeKo-1. The experiment in a line: Antiproliferative activity against human JeKo1 cells assessed as inhibition of cell proliferation incubated for 72 hrs by Cell-titer-Glo luminescent cell viability assay. Type of data set: functional, cell-based. Particulars: JeKo-1, 72 h.
The next data set relates to Z-138. The experiment in a line: Antiproliferative activity against human Z138 cells assessed as inhibition of cell proliferation incubated for 72 hrs by Cell-titer-Glo luminescent cell viability assay. Type of data set: functional, cell-based. The note with it: Z-138, 72 h.
A further data set deals with Maver1. The experiment in a line: Antiproliferative activity against human Maver1 cells assessed as inhibition of cell proliferation incubated for 72 hrs by Cell-titer-Glo luminescent cell viability assay. The note with it: Maver1, 72 h. Format: functional, cell-based.
In a further data set the test system is Rec1. The experiment in a line: Antiproliferative activity against human Rec1 cells assessed as inhibition of cell proliferation incubated for 72 hrs by Cell-titer-Glo luminescent cell viability assay. Format: functional, cell-based. The note with it: Rec1, 72 h.
Data set [2] in a line: in vitro. Particulars: human.
Description: Hepatic clearance in human liver microsomes further incubated of 5 to 60 mins in presence of NADPH regenerating system by LC/MS analysis
Data set [3] can be described thus: Stability in human liver microsomes assessed as compound remaining incubated of 60 mins in presence of NADPH regenerating system by LC/MS analysis.
The nature of data set [4]: in vitro. The note with it: human. This is another data set of the same source.
Description: Intrinsic clearance in human liver microsomes further incubated of 5 to 60 mins in presence of NADPH regenerating system by LC/MS analysis
A short description of data set [5]: Half life in human liver microsomes further incubated of 5 to 60 mins in presence of NADPH regenerating system by LC/MS analysis. Background: Microsomes from liver hold many membrane-bound enzymes, among them those of drug oxidation.

Molecules are shown by their SMILES.

What is called IC50 is the concentration at which inhibition is half-maximal. `C=CC(=O)Nc1cccc(Cn2nc(-c3ccc(Oc4ccccc4)cc3)cc2C(=O)O)c1`: the IC50 in [1] is 24.3 µM; with JeKo-1 it was over 60 µM; in the data set with Z-138 it was 28.5 µM; in the data set with Maver1, 37.4 µM; with Rec1 it was 33.1 µM.
On to `O=C(CCl)Nc1ccc(Cn2nc(-c3ccc(Oc4ccccc4)cc3)cc2CO)cc1`, for which the IC50 (in data set [1]; with JeKo-1; in the data set with Z-138; in the data set on Maver1; with Rec1) was 0.4 µM in each case.
By CLint scaled is commonly meant the capacity of the preparation to metabolise the compound, expressed as a volume cleared per time. Lower therefore signals greater metabolic stability. As a reminder, the share remaining is the share of the starting amount still present when the sample was taken. By microsomal CLint is commonly meant the rate of metabolic loss divided by the concentration. Low readings indicate greater metabolic stability, high ones faster metabolism. The half-life is the time in which the quantity being followed falls by half. For `O=C(CCl)Nc1cccc(Cn2nc(-c3ccc(Oc4ccccc4)cc3)cc2CO)c1`, the intrinsic metabolic clearance (CLint scaled) in “in vitro [2]” (liver microsomes) was 118 mL/min/kg. Also, the share remaining at 1 h in data set [3] (liver microsomes) stood at 1.5%. The compound further gave a microsomal CLint in the data set “in vitro [4]” (liver microsomes) of 131 µL/min/mg. Also, the IC50 (in data set [1]; with JeKo-1; in the data set on Z-138; in the data set with Maver1; with Rec1) was 0.4 µM each time. The half-life in [5] (liver microsomes) was determined as 10.6 min.
As to `C=CC(=O)Nc1cccc(Cn2nc(-c3ccc(Oc4ccccc4)cc3)cc2CO)c1`, the IC50 was determined as 3.3 µM in data set [1]; 5.2 µM in the data set with JeKo-1; 6 µM with Z-138; 6.7 µM in the data set with Maver1; 1.3 µM in the data set with Rec1.
For `C=CC(=O)Nc1ccc(Cn2nc(-c3ccc(Oc4ccccc4)cc3)cc2C(=O)OCC)cc1`, in that order: 5.4 µM, 10.9 µM, 12.5 µM, 13.3 µM and 2.8 µM.
For `C/C=C/C(=O)Nc1cccc(Cn2nc(-c3ccc(Oc4ccccc4)cc3)cc2C(=O)OCC)c1`, in that order: 16.5 µM, 16.7 µM, 8.9 µM, 14.2 µM and 7.8 µM.
For `C/C=C/C(=O)Nc1ccc(Cn2nc(-c3ccc(Oc4ccccc4)cc3)cc2C(=O)O)cc1`, in that order: 23.1 µM, over 60 µM, over 60 µM, over 60 µM and 23.6 µM.
For `C=CC(=O)Nc1ccc(Cn2nc(-c3ccc(Oc4ccccc4)cc3)cc2C(=O)O)cc1`, the IC50 (in data set [1]; with JeKo-1; in the data set with Z-138; with Maver1; with Rec1) was over 60 µM each time.
Regarding `C/C=C/C(=O)Nc1cccc(Cn2nc(-c3ccc(Oc4ccccc4)cc3)cc2CO)c1`, the IC50 in data set [1] amounted to 4.9 µM; with JeKo-1, 22.6 µM; with Z-138, 5.7 µM; in the data set on Maver1 it was 8.1 µM; with Rec1 it was 3.4 µM.
For `C/C=C/C(=O)Nc1cccc(Cn2nc(-c3ccc(Oc4ccccc4)cc3)cc2C(=O)O)c1`, in that order: 23.3 µM, over 60 µM, 24.1 µM, 31.6 µM and 26 µM.
For `O=C(CCl)Nc1cccc(Cn2nc(-c3ccc(Oc4ccccc4)cc3)cc2C(=O)O)c1`, in that order: 11.7 µM, 6.3 µM, 9.1 µM, 4.7 µM and 7.1 µM.
For `CCOC(=O)c1cc(-c2ccc(Oc3ccccc3)cc2)nn1Cc1ccc(NC(=O)CCl)cc1`, in that order: 0.6 µM, 0.4 µM, 0.4 µM, 0.4 µM and 0.4 µM.
Regarding `C/C=C/C(=O)Nc1ccc(Cn2nc(-c3ccc(Oc4ccccc4)cc3)cc2CO)cc1`, the IC50 in [1] is 40.2 µM; in the data set with JeKo-1 it was over 60 µM; with Z-138, 54.5 µM; in the data set with Maver1 it was 48.4 µM; in the data set with Rec1, 12.2 µM.
In the case of `C=CC(=O)Nc1cccc(Cn2nc(-c3ccc(Oc4ccccc4)cc3)cc2C(=O)OCC)c1`, the IC50 amounted to 5.7 µM in [1]; 7.6 µM in the data set on JeKo-1; 7.8 µM with Z-138; 8.6 µM with Maver1; 3.3 µM in the data set with Rec1.
For `C/C=C/C(=O)Nc1ccc(Cn2nc(-c3ccc(Oc4ccccc4)cc3)cc2C(=O)OCC)cc1`, in that order: 33.2 µM, 52.5 µM, over 60 µM, over 60 µM and 13.1 µM.
For `CCOC(=O)c1cc(-c2ccc(Oc3ccccc3)cc2)nn1Cc1cccc(NC(=O)CCl)c1`, in that order: 1 µM, 0.4 µM, 0.4 µM, 0.5 µM and 0.4 µM.
For `O=C(CCl)Nc1ccc(Cn2nc(-c3ccc(Oc4ccccc4)cc3)cc2C(=O)O)cc1`, in that order: 4.5 µM, 2.5 µM, 1.5 µM, 1.2 µM and 4 µM.
Regarding `C=CC(=O)Nc1ccc(Cn2nc(-c3ccc(Oc4ccccc4)cc3)cc2CO)cc1`, the half-inhibitory concentration (IC50) in data set [1] was found to be 5.2 µM; with JeKo-1 it was 8 µM; with Z-138, 6.8 µM; with Maver1, 7 µM; with Rec1, 3.5 µM.
For `C/C=C/C(=O)N1CCCC(n2nc(-c3ccc(Oc4ccccc4)cc3)cc2C(=O)O)C1` (racemic), in that order: over 60 µM, over 60 µM, over 60 µM, over 60 µM and 31 µM.
For `C/C=C/C(=O)N1CCCC(n2nc(-c3ccc(Oc4ccccc4)cc3)cc2CO)C1` (racemic), in that order: 45 µM, over 60 µM, 51.1 µM, over 60 µM and 27.2 µM.
For `O=C(O)c1cc(-c2ccc(Oc3ccccc3)cc2)nn1C1CCCN(C(=O)CCl)C1` (racemic), in that order: 2.5 µM, 3.6 µM, 2.8 µM, 0.4 µM and 2.2 µM.
Consider `C=CC(=O)N1CCCC(n2nc(-c3ccc(Oc4ccccc4)cc3)cc2C(=O)O)C1` (racemic), for which the IC50 in [1] was over 60 µM; in the data set with JeKo-1, over 60 µM; in the data set with Z-138, over 60 µM; with Maver1, over 60 µM; in the data set with Rec1, 50 µM.
For the compound `C=CC(=O)N1CCCC(n2nc(-c3ccc(Oc4ccccc4)cc3)cc2C(=O)OCC)C1` (racemic), the IC50 in data set [1] is 42.3 µM; with JeKo-1, 21.2 µM; in the data set on Z-138, 44 µM; in the data set with Maver1, over 60 µM; with Rec1 it was 13.8 µM.
As to `C/C=C/C(=O)N1CCCC(n2nc(-c3ccc(Oc4ccccc4)cc3)cc2C(=O)OCC)C1` (racemic), the half-maximal inhibitory concentration (IC50) in data set [1] came out at 11.7 µM; in the data set on JeKo-1, 26.5 µM; in the data set with Z-138, 19.1 µM; in the data set with Maver1, 19.6 µM; in the data set on Rec1, 5.1 µM.
For `C=CC(=O)N1CCCC(n2nc(-c3ccc(Oc4ccccc4)cc3)cc2CO)C1` (racemic), in that order: 15.4 µM, 11.9 µM, 14.6 µM, 30.5 µM and 5.4 µM.
For `O=C(CCl)N1CCCC(n2nc(-c3ccc(Oc4ccccc4)cc3)cc2CO)C1` (racemic), in that order: 6 µM, 7.8 µM, 0.4 µM, 1.1 µM and 0.4 µM.
For `CCOC(=O)c1cc(-c2ccc(Oc3ccccc3)cc2)nn1C1CCCN(C(=O)CCl)C1` (racemic), in that order: 1.2 µM, 0.8 µM, 1.3 µM, 1.2 µM and 0.4 µM.
In the case of `O=C(O)Cc1ccccc1Nc1c(Cl)cccc1Cl` [DICLOFENAC], the intrinsic metabolic clearance (CLint scaled) in the data set “in vitro [2]” (microsomes) stood at 109 mL/min/kg. Besides, the intrinsic metabolic clearance (microsomal CLint) in the data set “in vitro [4]” (microsomes) was found to be 121 µL/min/mg. Besides, the half-life in data set [5] (microsomes) came to 11.5 min.
Regarding `C=CC(=O)N1CCC[C@@H](n2nc(-c3ccc(Oc4ccccc4)cc3)c3c(N)ncnc32)C1` [IBRUTINIB], the half-maximal inhibitory concentration (IC50) in [1] is 10.1 µM; in the data set with JeKo-1, 1.5 µM; in the data set on Z-138, 11.3 µM; in the data set with Maver1, 10.4 µM; in the data set with Rec1, 1.1 µM.
In the case of `C[C@]12CC[C@H]3[C@@H](CCC4=CC(=O)CC[C@@]43C)[C@@H]1CC[C@@H]2O` [TESTOSTERONE], the fraction remaining at 1 h in [3] (microsomes) stood at 4.2%.
